From paper PMC10574185, “Encapsulation and Biological Activity of Hesperetin Derivatives with HP-β-CD” (Molecules, 2023)
≈ marks a conversion by molar mass, not a printed value. Like-named read-outs stand apart in the source and are kept apart here.

Legend:
[1] = Phase solubility studies with HP-β-CD; assay type: physicochemical; conditions: for solubility at 60 min: thermodynamic from solid
Procedure: The purpose of this part of the study was to determine the solubility of compounds of hesperetin and its Schiff bases (HHSB, HIN, and HTSC) in aqueous solution at different pHs and temperatures, and the effect of their inclusion in modified HP-β-CD on the aqueous solubility of these compounds at different pH values.
The effect of the presence of HP-β-CD at different temperatures (25, 37, and 60 °C) was determined by developing phase solubility diagrams.
In accordance with the methodology described in Section 3.4, excess amounts of each tested substance were added to aqueous solution with increasing concentration of HP-β-CD up to 16 mM, respectively, in 2 mL of 100 mM sodium acetate buffer (pH 3.6), 100 mM sodium phosphate buffer (pH 6.5) or 100 mM sodium borate buffer (pH 8.5).
Phase solubility studies were conducted according to [64] with some modifications. Excess amounts of each tested substance were added to aqueous solution with increasing concentration of HP-β-CD up to 16 mM, in 2 mL of 100 mM sodium acetate buffer (pH 3.6), 100 mM sodium phosphate buffer (pH 6.5), or 100 mM sodium borate buffer (pH 8.5), respectively. The samples were maintained in an ultrasonic bath at various temperatures (25, 37, and 60 °C) for 60 min to reach equilibrium. The aqueous solutions were then filtered through 0.45 µm acetate cellulose (CA) membrane filter and diluted. The tested compound concentration on each clear filtrate was spectrophotometrically determined by measuring at their wavelength maximum.
The complexation constant (Kc) between studied molecules and HP-β-CD was determined by using Equation (1):(1) Kc=slope/S0 (1−slope) where S0 means the water solubility of the studied substance, and “slope” means the slope of the phase solubility diagram.
Complexation efficiency was calculated from the slope of the phase solubility diagram using Equation (2):(2) CE=S0×Kc=slope/1−slope
The CE was also applied to evaluate the molar ratio in solution of tested systems using Equation (3):(3) Compound:HP−β−CD=1:(1+1/CE)

[2] = system: HaCaT cells; assay: MTT cytotoxicity assay on HaCaT keratinocytes; assay type: cell-based, human; conditions: for IC50: Homo sapiens, MTT
Procedure: HaCaT keratinocyte cells were exposed to chemical compounds at nine different concentrations (from 3.9 to 995.6 µg/mL) in four replicates of each concentration for 24 and 48 h.
All compounds were dissolved in sterile DMSO (Merck Life Science, Warsaw, Poland) and were sterile-filtered with 0.22 µm pore size sterile disposable syringe filters.
HaCaT cell line (the normal immortalised human keratinocytes) used in the study derived from the 35th passage (the original material created by Prof. Dr. Petra Boukamp and Dr. Norbert Fusenig) was purchased from Cell Line Service GmbH (Eppelheim, Germany). The cells were cultured and propagated as described previously.
The cytotoxicity was assessed with MTT assay according to methodology applied previously.
The following final concentrations (in four replicates per experiment) of the test compounds were tested (µg/mL): 3.9; 7.8; 15.6; 31.1; 62.2; 124.5; 248.9; 497.8, and 995.6. […] Three independent experiments were conducted. The vehicle was cells in the culture medium. The assay was conducted for 24 h and 48 h.

[3] = system: Escherichia coli ATCC 11303; assay: Minimal inhibition concentration (dilution + diffusion-well); assay type: cell-based; conditions: ATCC11303, 37 °C, 18 h
Procedure: The MIC was performed for compounds and strains sensitive to their action in the antagonistic test. Minimum inhibitory concentration was determined by combining the dilution method with the diffusion-well method. Test compounds at a concentration of 500 μM were prepared in 5% (w/w) DMSO. Surface layer of microorganisms, against which antagonistic activity was noted, were prepared in the same way as for the antagonistic test. Then, two-fold sequential dilutions of the test compounds in the range of 500 µM to 62.5 µM were prepared. Wells with a diameter of 8 mm cut in the Mueller–Hinton Agar (Merck, Darmstadt, Germany) with the test strain were added with 50 µL of the prepared dilutions, which corresponded to the following concentrations of the tested compounds: […], 1.25 mM, 0.625 mM, and […]. Petri dishes prepared in this way were incubated at 37 °C for 18 h. After a given time, the MIC value was read. The MIC concentration expressed in µM was the first concentration of the tested compounds at which growth inhibition of the test strain was observed.

[4] = system: Staphylococcus aureus; design: method as in PMID 36009336; conditions: cited from earlier work
[5] = system: Bacillus cereus; design: method as in PMID 36009336; conditions: cited from earlier work
[6] = system: Escherichia coli; design: method as in PMID 36009336; conditions: cited from earlier work
[7] = system: Pseudomonas aeruginosa; design: method as in PMID 36009336; conditions: cited from earlier work
[8] = pH 6.5; cited from earlier work

CE complexation efficiency ([1]; 25 °C, pH 3.6, with HP-β-CD): 34.7%
Kc complexation constant ([1]; 25 °C, pH 3.6, with HP-β-CD): 3221 ± 358 M⁻¹
increase of solubility with HP-β-CD ([1]; 25 °C, pH 6.5, HP-β-CD at 16 mM): five-fold
CE complexation efficiency ([1]; 25 °C, pH 6.5, with HP-β-CD): 248%
Kc complexation constant ([1]; 25 °C, pH 6.5, with HP-β-CD): 11933 ± 1949 M⁻¹
CE complexation efficiency ([1]; 25 °C, pH 8.5, with HP-β-CD): 80.4%
Kc complexation constant ([1]; 25 °C, pH 8.5, with HP-β-CD): 2513 ± 143 M⁻¹
CE complexation efficiency ([1]; 37 °C, pH 3.6, with HP-β-CD): 44.4%
Kc complexation constant ([1]; 37 °C, pH 3.6, with HP-β-CD): 3171 ± 887 M⁻¹
CE complexation efficiency ([1]; 37 °C, pH 6.5, with HP-β-CD): 25%
Kc complexation constant ([1]; 37 °C, pH 6.5, with HP-β-CD): 2280 ± 152 M⁻¹
CE complexation efficiency ([1]; 37 °C, pH 8.5, with HP-β-CD): 19%
Kc complexation constant ([1]; 37 °C, pH 8.5, with HP-β-CD): 1703 ± 163 M⁻¹
CE complexation efficiency ([1]; 60 °C, pH 3.6, with HP-β-CD): 34%
Kc complexation constant ([1]; 60 °C, pH 3.6, with HP-β-CD): 2566 ± 144 M⁻¹
CE complexation efficiency ([1]; 60 °C, pH 6.5, with HP-β-CD): 11%
Kc complexation constant ([1]; 60 °C, pH 6.5, with HP-β-CD): 1179 ± 888 M⁻¹
CE complexation efficiency ([1]; 60 °C, pH 8.5, with HP-β-CD): 37%
Kc complexation constant ([1]; 60 °C, pH 8.5, with HP-β-CD): 2365 ± 221 M⁻¹
solubility at 60 min ([1]; aqueous buffer, 25 °C, pH 3.6 sodium acetate buffer, without cyclodextrin, read-out: solubility without HP-β-CD (value in brackets) (converted)): 50 µM (≈ 15.1 µg/mL)
solubility at 60 min ([1]; aqueous buffer, 25 °C, pH 6.5 sodium phosphate buffer, without cyclodextrin, read-out: solubility without HP-β-CD (value in brackets) (converted)): 49 µM (≈ 14.8 µg/mL)
solubility at 60 min ([1]; aqueous buffer, 25 °C, pH 8.5 sodium borate buffer, without cyclodextrin, read-out: solubility without HP-β-CD (value in brackets) (converted)): 280 µM (≈ 84.6 µg/mL)
solubility at 60 min ([1]; aqueous buffer, 37 °C, pH 3.6 sodium acetate buffer, without cyclodextrin, read-out: solubility without HP-β-CD (value in brackets) (converted)): 80 µM (≈ 24.2 µg/mL)
solubility at 60 min ([1]; aqueous buffer, 37 °C, pH 6.5 sodium phosphate buffer, without cyclodextrin, read-out: solubility without HP-β-CD (value in brackets) (converted)): 85 µM (≈ 25.7 µg/mL)
solubility at 60 min ([1]; aqueous buffer, 37 °C, pH 8.5 sodium borate buffer, without cyclodextrin, read-out: solubility without HP-β-CD (value in brackets) (converted)): 98 µM (≈ 29.6 µg/mL)
solubility at 60 min ([1]; aqueous buffer, 60 °C, pH 3.6 sodium acetate buffer, without cyclodextrin, read-out: solubility without HP-β-CD (value in brackets) (converted)): 95 µM (≈ 28.7 µg/mL)
solubility at 60 min ([1]; aqueous buffer, 60 °C, pH 6.5 sodium phosphate buffer, without cyclodextrin, read-out: solubility without HP-β-CD (value in brackets) (converted)): 82 µM (≈ 24.8 µg/mL)
solubility at 60 min ([1]; aqueous buffer, 60 °C, pH 8.5 sodium borate buffer, without cyclodextrin, read-out: solubility without HP-β-CD (value in brackets) (converted)): 120 µM (≈ 36.3 µg/mL)
solubility at 60 min ([1]; 25 °C, pH 3.6 sodium acetate buffer, with HP-β-CD, read-out: S0 (solubility with HP-β-CD)): 108 ± 4 µM (≈ 32.6 µg/mL)
solubility at 60 min ([1]; 25 °C, pH 6.5 sodium phosphate buffer, with HP-β-CD, read-out: S0 (solubility with HP-β-CD)): 208 ± 110 µM (≈ 62.9 µg/mL)
solubility at 60 min ([1]; 25 °C, pH 8.5 sodium borate buffer, with HP-β-CD, read-out: S0 (solubility with HP-β-CD)): 320 ± 32 µM (≈ 96.7 µg/mL)
solubility at 60 min ([1]; 37 °C, pH 3.6 sodium acetate buffer, with HP-β-CD, read-out: S0 (solubility with HP-β-CD)): 140 ± 40 µM (≈ 42.3 µg/mL)
solubility at 60 min ([1]; 37 °C, pH 6.5 sodium phosphate buffer, with HP-β-CD, read-out: S0 (solubility with HP-β-CD)): 110 ± 30 µM (≈ 33.3 µg/mL)
solubility at 60 min ([1]; 37 °C, pH 8.5 sodium borate buffer, with HP-β-CD, read-out: S0 (solubility with HP-β-CD)): 110 ± 10 µM (≈ 33.3 µg/mL)
solubility at 60 min ([1]; 60 °C, pH 3.6 sodium acetate buffer, with HP-β-CD, read-out: S0 (solubility with HP-β-CD)): 130 ± 20 µM (≈ 39.3 µg/mL)
solubility at 60 min ([1]; 60 °C, pH 6.5 sodium phosphate buffer, with HP-β-CD, read-out: S0 (solubility with HP-β-CD)): 96 ± 9 µM (≈ 29 µg/mL)
solubility at 60 min ([1]; 60 °C, pH 8.5 sodium borate buffer, with HP-β-CD, read-out: S0 (solubility with HP-β-CD)): 150 ± 27 µM (≈ 45.3 µg/mL)
MIC [3]: 2.5 µM
Structure (SMILES): COc1ccc(C2CC(=O)c3c(O)cc(O)cc3O2)cc1O (stereo not shown) [Hesperetin, 3′,5,7-Trihydroxy-4′-methoxyflavanone]
Non-cytotoxic concentration (IC0) ([2]; 48 h exposure): ≤ 3.9 µg/mL
IC50 ([2]; 24 h exposure, read-out: IC50 After 24 h): 221 µg/mL (≈ 731 µM)
IC50 ([2]; 48 h exposure, read-out: IC50 After 48 h): 150 µg/mL (≈ 496 µM)
MIC [4]: 125 µg/mL (≈ 414 µM)
MIC [5]: 250 µg/mL (≈ 827 µM)
MIC [6]: 500 µg/mL (≈ 1650 µM)
MIC [7]: 500 µg/mL (≈ 1650 µM)
increase of hesperetin solubility with HP-β-CD [8]: 164 times
